Laboratory results from patent US20230219957A1, “SMALL MOLECULE CB002-ANALOGES RESTORE THE P53 PATHWAY AND TARGET S-PHASE CHECKPOINT” (Brown University, priority 2020, published 2023).

Tests used:
Format in all cases: cell-based, human
HCT116 p53+/+ = experiment: CellTiter-Glo (Cell-Titer glow) cytotoxicity assay; conditions: forty-eight hours
Experimental: (§1) CellTiter-Glo® luminescent cell viability assay. Cells were seeded in 96-well plates at a density of 5×10^3 cells per well. 20 μL of CellTiter-Glo® Reagent was added directly to the wells, following the manufacturers protocol. The bioluminescence signal was determined using an IVIS imaging system, optionally at a period of 48-72 hours after treatment.
(§2) CB002-analog #4 is a potent anti-tumor agent in vitro and in vivo. The inventors focused on lead CB002-analog #4 and investigated its therapeutic index in vitro and in vivo. The inventors treated an isogenic HCT116 cell line panel with 100 μM CB002 or 25 μM CB002-analog #4 and established IC50 values by the Cell-Titer glow cytotoxicity assay. Across this panel, CB002-analog #4 has a 20-fold to 30-fold range in IC50 values, independently of the HCT116 p53-status.

HCT116 p53−/− = experiment: CellTiter-Glo (Cell-Titer glow) cytotoxicity assay; conditions: forty-eight hours
Experimental: as §1, §2

HCT116 p53 R273H = experiment: CellTiter-Glo (Cell-Titer glow) cytotoxicity assay; conditions: forty-eight hours
Experimental: as §1, §2

HCT116 p53 R175H = experiment: CellTiter-Glo (Cell-Titer glow) cytotoxicity assay; conditions: forty-eight hours
Experimental: as §1
Overexpression of p53 R175H mutant by lentivirus infection. HCT116 p53^−/− cells, obtained from the Vogelstein Laboratory, Johns Hopkins University, were infected with a lentivirus vector containing the p53 R175H mutant (pLenti6/V5-p53_R175H, Addgene). Cells were selected with blasticidin (8 μg/mL)-containing media cultured for ten days. Blasticidin-resistant clones (pooled clones) were screened for expression of the p53 R175H mutation by Western blot analysis with p53 DO-1 antibody.
as §2

SW480 colon cancer cells = experiment: Propidium iodide / BrdU cell cycle analysis of synchronized cells
Experimental: Cell synchronization. Synchronized cells were synchronized by double thymidine block. Cells were treated with […] thymidine for sixteen hours. The drug was removed and replaced by complete growth media for eight hours. Cells were treated for the second time with […] thymidine for sixteen hours. At this point, cells were treated and harvested.
Propidium iodide and BrdU flow cytometry assay. Cells were seeded at a density of 5×10^5 in a 6-well plate and treated for forty-eight to seventy-two hours. After treatment, floating cells were collected, and adherent cells were trypsinized, pelleted, washed with phosphate-buffered saline, and fixed in 70% ethanol overnight. For propidium iodide (PI) based Sub-G1 apoptosis analysis, cells were spun down after fixation and resuspended in phosphate-citric acid buffer (0.2M Na2HPO4+0.1M Citric Acid, pH 7.8) at room temperature for five minutes. The cell pellet was resuspended for staining with 50 μg/mL PI and 250 μg/mL ribonuclease (RNase A). For BrdU analysis, after cell fixation, cells were spun down and resuspended in one mL of 2N HCL with 0.5% Triton X-100 for thirty minutes at room temperature. Cells were pelleted, washed with phosphate-buffered saline, and resuspended in 20 μL BrdU antibody (BD Biosciences, cat no. 347580) diluted in 0.5% Tween 20/PBS/5% bovine serum albumin for thirty minutes at room temperature. Cells were then spun down and resuspended in 140 μg/mL goat-anti mouse Alexa Fluor 488 (#A-11008, Thermo Fisher Scientific, Waltham, Mass., USA) in 0.5% Tween 20 in phosphate-buffered saline/5% bovine serum albumin for thirty minutes at room temperature. Cells were then spun down and resuspended in 5 μg/mL PI: 250 μg/mL RNase A solution. Samples were analyzed on an Epics Elite Epics flow cytometer (Coulter-Beckman).
BrdU analysis gating. Cell aggregates were gated out in the PI Peak vs DNA PI histogram. BrdU lower limit intensity was set on the upper limit of the negative control. The no BrdU antibody assays and no goat-anti mouse Alexa Fluor 488 antibody assays were the negative controls. […] Gating was held constant throughout the samples within a given assay.

SMILES	IC50 (HCT116 p53+/+; Homo sapiens, HCT-116) [µM]	IC50 (HCT116 p53−/−; Homo sapiens, HCT-116) [µM]	IC50 (HCT116 p53 R273H; Homo sapiens, HCT-116) [µM]	IC50 (HCT116 p53 R175H; Homo sapiens, HCT-116) [µM]	S-phase delay, difference (SW480 colon cancer cells; six-eight hours of treatment, combined with etoposide) [fold]	IC50 (HCT116 p53+/+) [µM]	IC50 (HCT116 p53−/−) [µM]	IC50 (HCT116 p53 R273H) [µM]	IC50 (HCT116 p53 R175H) [µM]	S-phase accumulation (SW480 colon cancer cells; eight hours following release from synchronization)	increase of cells in S-phase (SW480 colon cancer cells; twelve hours, PI and BrdU co-staining, compared to DMSO vehicle control) [%]	G2-phase cells versus etoposide (SW480 colon cancer cells; twenty-four hours)
Cn1c(=O)c2[nH]c(Nc3ccccc3)nc2n(C)c1=O [CB002]	242	161	140	400	2							
Cn1c(=O)c2[nH]c(Nc3cccc(C(F)(F)F)c3)nc2n(C)c1=O [CB002-analog #4]						8.69	8.83	8.09	4.46	S-phase accumulation	30	no significant differences
